Data reported in the supplement of paper PMC10307832.

Key:
Test in all cases: relative viability (nuclei count vs DMSO), 5 days (fraction); higher = more cells survive
IPA-3 + Pemetrexed = compound: C1=CC=C2C(=C1)C=CC(=C2SSC3=C(C=CC4=CC=CC=C43)O)O [IPA-3] + Nc1nc2[nH]cc(CCc3ccc(C(=O)N[C@@H](CCC(=O)O)C(=O)O)cc3)c2c(=O)[nH]1 [Pemetrexed] (partner 0.2 µM)
How it was run: (§1)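 Cells from lung cancer lines were seeded into 1536-well plates and, one day later, dosed by pin tool. Treatments were either a single drug or a fixed dose of an anchor drug with five library-drug doses (not always all listed) in √10 steps. After 5 days, nuclei were stained in a one-step fixation (final 0.05% Triton X-100, 1% formaldehyde, 1 ug/ml Hoechst) and counted on 4× images, and relative viability is the treated-to-vehicle nuclei ratio, as the median of duplicate plates.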

IPA-3 + Vorinostat = compound: C1=CC=C2C(=C1)C=CC(=C2SSC3=C(C=CC4=CC=CC=C43)O)O [IPA-3] + O=C(CCCCCCC(=O)Nc1ccccc1)NO [Vorinostat] (partner 1 µM)
How it was run: as §1

Doramapimod + Vorinostat = compound: Cc1ccc(-n2nc(C(C)(C)C)cc2NC(=O)Nc2ccc(OCCN3CCOCC3)c3ccccc23)cc1 [Doramapimod] + O=C(CCCCCCC(=O)Nc1ccccc1)NO [Vorinostat] (partner 1 µM)
How it was run: as §1

RAF265 + Crizotinib = compound: Cn1c(Nc2ccc(C(F)(F)F)cc2)nc2cc(Oc3ccnc(-c4ncc(C(F)(F)F)[nH]4)c3)ccc21 [RAF265] + C[C@@H](Oc1cc(-c2cnn(C3CCNCC3)c2)cnc1N)c1c(Cl)ccc(F)c1Cl [Crizotinib] (partner 1 µM)
How it was run: as §1

## UMC-11
IPA-3 + Pemetrexed; first compound 0.2 µM
  relative viability: 0.869
IPA-3 + Pemetrexed; first compound 0.6325 µM
  relative viability: 0.756
IPA-3 + Pemetrexed; first compound 2 µM
  relative viability: 0.83
IPA-3 + Pemetrexed; first compound 6.325 µM
  relative viability: 0.769
IPA-3 + Pemetrexed; first compound 20 µM
  relative viability: 0.943
IPA-3 + Vorinostat; first compound 0.2 µM
  relative viability: 0.395
IPA-3 + Vorinostat; first compound 0.6325 µM
  relative viability: 0.425
IPA-3 + Vorinostat; first compound 2 µM
  relative viability: 0.389
IPA-3 + Vorinostat; first compound 6.325 µM
  relative viability: 0.394
IPA-3 + Vorinostat; first compound 20 µM
  relative viability: 0.409
Doramapimod + Vorinostat; first compound 0.02 µM
  relative viability: 0.371
Doramapimod + Vorinostat; first compound 0.06325 µM
  relative viability: 0.33
Doramapimod + Vorinostat; first compound 0.2 µM
  relative viability: 0.423
Doramapimod + Vorinostat; first compound 0.6325 µM
  relative viability: 0.316
Doramapimod + Vorinostat; first compound 2 µM
  relative viability: 0.379
RAF265 + Crizotinib; first compound 0.01 µM
  relative viability: 0.676
RAF265 + Crizotinib; first compound 0.03162 µM
  relative viability: 0.604
RAF265 + Crizotinib; first compound 0.1 µM
  relative viability: 0.602
RAF265 + Crizotinib; first compound 0.3162 µM
  relative viability: 0.648
RAF265 + Crizotinib; first compound 1 µM
  relative viability: 0.501
